The results in this text go back to PubChem BioAssay AID463136 (University of Pittsburgh Molecular Library Screening Center, 2010).

The nature of assay [1]: dynein cargo transport inhibitors, potency, dose response, imaging, high-content imaging (AID 463136).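 Further: mouse mammary adenocarcinoma 3617.4 cells expressing GFP-tagged rat glucocorticoid receptor.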 The settings on record: HCS imaging, dynein-mediated cargo transport inhibition; inhibition at max concentration; at 50 µM; stronger effect = higher value.
Assay [2] deals with HCS imaging, dynein-mediated cargo transport inhibition. The description is as above.

Records with an inconclusive call do not appear. The source made the active and inactive calls. How the calls were made is not given here.

By inhibition is commonly meant how much of the control response was suppressed. As usually defined, the IC50 is the concentration that inhibits the measured activity by half. Molecule `CCOC(=O)c1c2ccc(OCC(=O)N/N=C/c3ccc(Cl)cc3)cc2n2ccccc12` returned an inhibition in assay [1] of 27.4%. Besides, in assay [2], the IC50 was > 50 µM (inactive).

`CCN(CC)c1ccc(/C=N/c2sc3c(c2C#N)C2CCN3CC2)c(O)c1` displayed an inhibition in assay [1] of 82.6%. Besides, the IC50 in assay [2] was 38 µM.

The molecule `Cc1nc([N+](=O)[O-])c(Br)n1CC(=O)c1ccc(Cl)cc1` registered an inhibition in assay [1] of 88.1%. Moreover, the half-maximal inhibitory concentration (IC50) in assay [2] is 13.1 µM.

Consider `CN(Cc1ccc(Cl)s1)C(=O)CCl`, for which the inhibition in assay [1] turned out to be 75.8%. Further, the half-maximal inhibitory concentration (IC50) in assay [2] was 8.74 µM.

Molecule `N#Cc1c(C(F)(F)F)cc(-c2ccccc2)nc1SCc1nc(N)nc(N2CCOCC2)n1` displayed an inhibition in assay [1] of 8.72%. The IC50 in assay [2] is > 50 µM (inactive).

On to `Cc1cc(C)c2c(=O)n(CC(=O)NCCCN3CCN(c4ccccc4F)CC3)sc2n1`, for which the inhibition in assay [1] was found to be 96.3%. Besides, the IC50 in assay [2] is 14 µM.

For the molecule `O=C(CCl)N1N=C(c2cccs2)CC1c1ccco1` (stereo not drawn), the inhibition in assay [1] was 47.6%. Moreover, in assay [2], the IC50 is > 50 µM (inactive).

`N#C/C(=C/c1ccc(N2CCCCCC2)o1)c1ccc(Cl)cc1` yielded an inhibition in assay [1] of 23.1%. Also, in assay [2], the IC50 was > 50 µM (inactive).

In assay [1], `Cc1ccc(SC(=O)c2c(C)noc2-c2cc(C)on2)cc1` registered an inhibition of 37.3%. In addition, the IC50 in assay [2] is > 50 µM (inactive).

As to `CC(C)(C)C(=O)/C(=C/c1ccncc1)n1cncn1`, in assay [1], the inhibition stood at 82.3%. Moreover, the IC50 in assay [2] is 8.77 µM.

In assay [1], `O=c1c(Cl)c(Cl)cnn1Cc1nnc(-c2ccc(Cl)cc2)o1` displayed an inhibition of 69.6%. The IC50 in assay [2] is 22.9 µM.

Regarding `Cc1c(C#N)c(NC(=O)CCl)n(Cc2cccs2)c1C`, the inhibition in assay [1] was determined as 69.2%. In assay [2], the IC50 was 24.7 µM.

Consider `O=C1C=CC2C(c3ccc4c(c3)OCO4)CC1N2Cc1ccccc1` (stereo not drawn), for which the inhibition in assay [1] was 13%. Further, the IC50 in assay [2] was > 50 µM (inactive).

Regarding `CCN1CCN(C2=CC3=CC(=C(C#N)C#N)CCC3CC2)CC1` (stereo not drawn), in assay [1], the inhibition was found to be 99.2%. Besides, the IC50 in assay [2] is 30.6 µM.

As for `CC(C)N1C/C(=C/c2cccnc2)C(=O)/C(=C/c2cccnc2)C1`, the inhibition in assay [1] was determined as 83%. Moreover, in assay [2], the 50% inhibitory concentration (IC50) was 8.41 µM.

Molecule `C=C1C(=O)[C@@]23[C@H](O)C[C@@H]4C(C)(C)CC[C@H](O)[C@]4(C)[C@@H]2C[C@H](O)[C@@H]1[C@H]3O` showed an inhibition in assay [1] of 54.9%. Further, the IC50 in assay [2] was 9.84 µM.

For the molecule `CN(C(=O)CCl)C1CCCc2ccccc21` (stereo not drawn), in assay [1], the inhibition turned out to be 70.4%. Moreover, in assay [2], the IC50 was 6.32 µM.

Molecule `Cn1cc(Br)c(NC(=O)/C=C/C(=O)O)n1` showed an inhibition in assay [1] of 6.1%. In addition, the IC50 in assay [2] is > 50 µM (inactive).

Take `COC(=O)c1cc([N+](=O)[O-])c(-n2cncn2)c([N+](=O)[O-])c1`: in assay [1], the inhibition came out at 12.4%. Also, the IC50 in assay [2] was > 50 µM (inactive).

In assay [1], `O=C(Cn1ncc(Cl)c(Cl)c1=O)N1CCN(Cc2ccccc2)CC1` showed an inhibition of 62.9%. Further, the IC50 in assay [2] was 5.63 µM.

Molecule `O=C(NC1CCCCC1)C(c1cccnc1)N(C(=O)CCl)c1cccc(Cl)c1` (stereo not drawn) came in with an inhibition in assay [1] of 52.2%. For the same molecule, in assay [2], the half-maximal inhibitory concentration (IC50) was 7.48 µM.

In assay [1], `Cc1ccc(NC(=O)CN(C)C(=O)Cn2ncc(Cl)c(Cl)c2=O)cc1` gave an inhibition of 59%. Also, in assay [2], the IC50 was 7.77 µM.

Turning to `CC(=O)OCCN(C)c1cc(SC(C)C)c2nonc2c1[N+](=O)[O-]`, the inhibition in assay [1] stood at 68.1%. Further, the IC50 in assay [2] is 35.5 µM.

Molecule `CC(=O)Oc1ccc(OC(C)=O)c(SCCCCCCl)c1` showed an inhibition in assay [1] of 83.5%. For the same molecule, in assay [2], the half-inhibitory concentration (IC50) is 17.6 µM.

The molecule `O=C1NC(=O)N(c2ccccc2)C(=O)/C1=C/c1ccc([N+](=O)[O-])s1` returned an inhibition in assay [1] of 86.7%. Besides, in assay [2], the half-maximal inhibitory concentration (IC50) was 13.4 µM.

On to `COc1cccc(N2C(=O)NC(=O)/C(=C\c3ccc([N+](=O)[O-])s3)C2=O)c1`, for which, in assay [1], the inhibition came out at 85.4%. The IC50 in assay [2] was 13.5 µM.

In turn, `COc1ccc(/C=C\c2nc(=O)c3ccccc3o2)cc1` came in with an inhibition in assay [1] of 86.9%. The IC50 in assay [2] is 6.91 µM.

`CC(=O)/C(=C/c1ccccc1)C(=O)Nc1ccccc1C` displayed an inhibition in assay [1] of 70.1%. Further, in assay [2], the 50% inhibitory concentration (IC50) is 15.9 µM.

Regarding `O=c1[nH]sc2cc(F)ccc12`, in assay [1], the inhibition came out at 91.3%. The concentration for half-maximal inhibition (IC50) in assay [2] is 12 µM.

Molecule `CCOC(=O)c1c(NC(=O)/C=C/C(=O)O)sc(C)c1-c1ccc(Cl)cc1` gave an inhibition in assay [1] of 93.3%. Also, the IC50 in assay [2] was 9.7 µM.

As for `O=C(/C=C/c1cccc([N+](=O)[O-])c1)n1cnc2ccccc21`, the inhibition in assay [1] stood at 85.7%. The 50% inhibitory concentration (IC50) in assay [2] was 17.3 µM.

As for `BrC(=C\c1ccccc1)/C=N/n1cnnc1`, the inhibition in assay [1] amounted to 90.7%. For the same molecule, the IC50 in assay [2] is 18.4 µM.

In turn, `Cc1ccc(C2=NOC(=O)/C2=C\c2ccc(C)o2)cc1` yielded an inhibition in assay [1] of 79.8%. For the same molecule, the half-inhibitory concentration (IC50) in assay [2] was 39.9 µM.

`O=[N+]([O-])c1ccc(Sc2nnnn2-c2ccccc2)nc1` displayed an inhibition in assay [1] of 81.6%. Also, the half-maximal inhibitory concentration (IC50) in assay [2] is 7.59 µM.
